Columns and labels:
[1] = target: T1, 5-hydroxytryptamine receptor 1A (Homo sapiens) (UniProt P08908); conditions: HeLa
T1 sequence (whole entry): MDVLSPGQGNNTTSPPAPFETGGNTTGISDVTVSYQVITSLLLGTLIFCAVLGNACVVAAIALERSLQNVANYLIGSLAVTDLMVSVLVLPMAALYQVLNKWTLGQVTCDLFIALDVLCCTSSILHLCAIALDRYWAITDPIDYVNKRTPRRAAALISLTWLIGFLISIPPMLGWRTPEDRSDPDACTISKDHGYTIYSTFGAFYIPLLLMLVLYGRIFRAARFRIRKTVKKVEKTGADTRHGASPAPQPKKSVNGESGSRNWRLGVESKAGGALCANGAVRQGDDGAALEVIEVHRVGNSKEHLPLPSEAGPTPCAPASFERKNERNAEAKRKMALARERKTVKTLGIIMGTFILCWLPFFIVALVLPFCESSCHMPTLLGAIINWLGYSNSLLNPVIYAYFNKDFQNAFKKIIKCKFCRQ
Description: Agonist activity at human 5HT1A receptor expressed in HeLa cell membranes by [35S]GTPgammaS binding assay

[2] = test system: PC-3; assay: Cytotoxicity against human PC3 cells assessed as concentration required for tumor growth inhibition after 48 hrs by sulforhodamine B assay; assay type: functional; conditions: PC-3, 48 h
[3] = target: T2, Alpha-1B adrenergic receptor (Homo sapiens, UniProt P35368); assay: Displacement of [3H]prazosin from human recombinant alpha1B adrenergic receptor expressed in CHO cell membranes after 30 mins
T2 sequence (P35368 whole entry): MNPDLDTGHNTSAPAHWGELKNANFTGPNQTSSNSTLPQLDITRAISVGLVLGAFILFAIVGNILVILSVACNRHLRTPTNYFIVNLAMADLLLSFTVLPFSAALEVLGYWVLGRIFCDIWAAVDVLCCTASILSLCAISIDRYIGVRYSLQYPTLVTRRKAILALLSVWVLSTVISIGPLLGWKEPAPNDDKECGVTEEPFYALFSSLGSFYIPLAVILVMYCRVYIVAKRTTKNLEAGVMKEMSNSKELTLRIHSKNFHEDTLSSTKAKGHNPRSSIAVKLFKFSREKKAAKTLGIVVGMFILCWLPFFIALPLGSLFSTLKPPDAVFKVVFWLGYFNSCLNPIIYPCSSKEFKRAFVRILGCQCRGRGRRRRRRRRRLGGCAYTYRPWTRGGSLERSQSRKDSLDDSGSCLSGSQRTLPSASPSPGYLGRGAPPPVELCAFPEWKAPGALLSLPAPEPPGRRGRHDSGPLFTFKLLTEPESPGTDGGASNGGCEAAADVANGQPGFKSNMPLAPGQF

[4] = target: T3, Alpha-1A adrenergic receptor (Homo sapiens, UniProt P35348); assay: biochemical
T3 sequence (P35348 whole entry): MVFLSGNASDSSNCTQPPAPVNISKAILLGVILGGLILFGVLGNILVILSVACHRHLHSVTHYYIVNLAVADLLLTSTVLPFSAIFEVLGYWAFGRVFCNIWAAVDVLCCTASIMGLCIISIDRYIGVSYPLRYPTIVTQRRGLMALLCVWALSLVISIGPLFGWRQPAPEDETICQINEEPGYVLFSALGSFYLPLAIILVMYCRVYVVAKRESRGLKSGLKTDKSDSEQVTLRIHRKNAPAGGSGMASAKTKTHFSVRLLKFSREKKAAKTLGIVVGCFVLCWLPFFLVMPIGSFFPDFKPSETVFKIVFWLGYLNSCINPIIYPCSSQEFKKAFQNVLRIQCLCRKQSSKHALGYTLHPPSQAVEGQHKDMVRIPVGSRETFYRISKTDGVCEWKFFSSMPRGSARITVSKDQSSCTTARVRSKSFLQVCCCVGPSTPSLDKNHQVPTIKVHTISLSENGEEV
Description: Displacement of [3H]prazosin from human recombinant alpha1A adrenergic receptor expressed in CHO cell membranes after 30 mins

[5] = target: T4, 5-hydroxytryptamine receptor 1A (Homo sapiens, UniProt P08908); assay: Displacement of [3H]8-OH-DPAT from human recombinant 5HT1A receptor expressed in HeLa cell membranes after 30 mins
T4 sequence (P08908 whole entry): T1 sequence (whole entry)

[6] = test system: PC-3; assay: Cytotoxicity against human PC3 cells after 48 hrs by sulforhodamine B assay; assay type: functional; conditions: PC-3, 48 h
[7] = target: T5, Alpha-1D adrenergic receptor (Homo sapiens, UniProt P25100); assay: Displacement of [3H]prazosin from human recombinant alpha1D adrenergic receptor expressed in CHO cell membranes after 30 mins
T5 sequence (P25100 whole entry): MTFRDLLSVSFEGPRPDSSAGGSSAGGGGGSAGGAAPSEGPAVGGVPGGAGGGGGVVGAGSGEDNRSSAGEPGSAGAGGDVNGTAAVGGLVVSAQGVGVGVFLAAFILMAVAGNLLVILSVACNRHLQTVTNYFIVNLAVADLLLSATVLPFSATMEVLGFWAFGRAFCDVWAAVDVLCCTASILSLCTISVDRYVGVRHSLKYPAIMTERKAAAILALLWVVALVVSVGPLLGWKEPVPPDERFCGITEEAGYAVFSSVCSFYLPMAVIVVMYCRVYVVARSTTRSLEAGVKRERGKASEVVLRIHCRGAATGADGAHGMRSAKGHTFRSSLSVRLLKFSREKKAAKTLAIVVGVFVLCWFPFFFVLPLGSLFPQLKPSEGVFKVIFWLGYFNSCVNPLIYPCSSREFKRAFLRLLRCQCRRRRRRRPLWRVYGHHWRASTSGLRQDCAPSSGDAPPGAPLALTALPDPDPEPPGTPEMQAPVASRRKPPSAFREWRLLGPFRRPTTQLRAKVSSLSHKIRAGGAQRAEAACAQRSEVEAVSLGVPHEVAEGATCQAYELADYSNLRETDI

[8] = test system: PC-3; assay: Cytotoxicity against human PC3 cells transfected with sialpha1D-AR after 48 hrs by sulforhodamine B assay; assay type: functional; conditions: PC-3, 48 h; for CC50: read-out: LC50 (the source's name)
[9] = test system: PC-3; assay: Cytotoxicity against human PC3 cells transfected with sialpha1D-AR assessed as concentration required for tumor growth inhibition after 48 hrs by sulforhodamine B assay; assay type: functional; conditions: PC-3, 48 h
[10] = test system: PC-3; assay: Cytotoxicity against human PC3 cells transfected with siGLO assessed as concentration required for tumor growth inhibition after 48 hrs by sulforhodamine B assay; assay type: functional; conditions: PC-3, 48 h
[11] = test system: PC-3; assay: Cytotoxicity against human PC3 cells transfected with siGLO after 48 hrs by sulforhodamine B assay; assay type: functional; conditions: PC-3, 48 h; for CC50: read-out: LC50 (the source's name)
[12] = target: T1, 5-hydroxytryptamine receptor 1A (Homo sapiens); conditions: HeLa; remark: listed apart in the source
Description: Partial agonist activity at human 5HT1A receptor expressed in HeLa cell membranes after 20 mins by [35S]GTPgammaS binding assay

[13] = test system: PC-3; assay: Ratio of GI50 for human PC3 cells transfected with sialpha1D-AR to GI50 for human PC3 cells; assay type: functional
[14] = test system: PC-3; assay: Ratio of LC50 for human PC3 cells transfected with sialpha1D-AR to LC50 for human PC3 cells; assay type: functional
[15] = test system: PC-3; assay: Ratio of concentration required for tumor growth inhibition of human PC3 cells transfected with sialpha1D-AR to concentration required for tumor growth inhibition of human PC3 cells; assay type: functional

| SMILES | pD2 [1] | TGI [2] | Ki [3] | Ki [4] | Ki [5] | GI50 [6] | LC50 [6] | Ki [7] | GI50 [8] | CC50 [8] | TGI [9] | TGI [10] | GI50 [11] | CC50 [11] | pD2 [12] | RatioGI50 [13] | RatioLC50 [14] | Ratio [15] |
| --- | --- | --- | --- | --- | --- | --- | --- | --- | --- | --- | --- | --- | --- | --- | --- | --- | --- | --- |
| COc1cccc(OC)c1OCCNC[C@H]1COCC(c2ccccc2)(c2ccccc2)O1 | 8.3 | 30000 nM | 1660 nM | > 1000 nM | 0.55 nM | 16000 nM | 37000 nM | 724 nM | – | – | – | – | – | – | – | – | – | – |
| c1ccc(OCCNCC2COCC(c3ccccc3)(c3ccccc3)O2)cc1 (racemic) | 9.11 | 6000 nM | 120 nM | 170 nM | 0.589 nM | 3000 nM | 8000 nM | 3.63 nM | 23600 nM | 39800 nM | 25000 nM | 7100 nM | 4100 nM | 10700 nM | – | – | – | – |
| COc1cccc(OC)c1OCCNCC1COc2ccccc2O1 (stereo unspecified) | – | – | – | – | – | 64600 nM | – | – | – | – | – | – | – | – | – | – | – | – |
| c1ccc(OCCNC[C@H]2COCC(c3ccccc3)(c3ccccc3)O2)cc1 | – | 43000 nM | 170 nM | 437 nM | 0.398 nM | 19100 nM | > 300000 nM | 83.2 nM | 20700 nM | > 300000 nM | 49200 nM | 41700 nM | 22800 nM | > 300000 nM | 9.19 | – | – | – |
| COc1cccc(OC)c1OCCNC[C@@H]1COc2ccccc2O1 | – | – | – | – | 40.7 nM | – | – | – | – | – | – | – | – | – | – | – | – | – |
| c1ccc(OCCNC[C@@H]2COCC(c3ccccc3)(c3ccccc3)O2)cc1 | – | 2100 nM | 52.5 nM | 129 nM | 1.48 nM | 600 nM | 4000 nM | 3.24 nM | 10200 nM | 52100 nM | 27100 nM | 2500 nM | 900 nM | 5800 nM | 7.82 | 17 | 13 | 12.9 |
| COc1ccccc1OCCNC[C@H]1COCC(c2ccccc2)(c2ccccc2)O1 | – | 34000 nM | 417 nM | 257 nM | 0.309 nM | 21000 nM | – | 25.1 nM | – | – | – | – | – | – | 9.19 | – | – | – |
| COc1cccc(OC)c1OCCNC[C@@H]1COCC(c2ccccc2)(c2ccccc2)O1 | 5.88 | 58000 nM | 195 nM | 166 nM | 44.7 nM | 32000 nM | 65000 nM | 56.2 nM | – | – | – | – | – | – | – | – | – | – |
| COc1ccccc1OCCNCC1COCC(c2ccccc2)(c2ccccc2)O1 (racemic) | 9.4 | 16000 nM | 56.2 nM | 27.5 nM | 0.661 nM | 9000 nM | – | 1.15 nM | – | – | – | – | – | – | – | – | – | – |
| NCCc1c[nH]c2ccc(O)cc12 | 7.3 | – | – | – | – | – | – | – | – | – | – | – | – | – | – | – | – | – |
| COc1cccc(OC)c1OCCNC[C@H]1COc2ccccc2O1 | – | – | – | – | 2.45 nM | – | – | – | – | – | – | – | – | – | – | – | – | – |
| COc1ccccc1N1CCN(CCN2C(=O)CC3(CCCC3)CC2=O)CC1 | 9.27 | – | – | – | – | – | – | – | – | – | – | – | – | – | – | – | – | – |
| COc1ccccc1OCCNC[C@@H]1COCC(c2ccccc2)(c2ccccc2)O1 | – | 9000 nM | 21.9 nM | 16.6 nM | 0.603 nM | 4000 nM | – | 1.38 nM | – | – | – | – | – | – | 7.7 | – | – | – |
| COc1cc2nc(N3CCN(C(=O)C4COc5ccccc5O4)CC3)nc(N)c2cc1OC (stereo unspecified) [DOXAZOSIN] | – | – | – | – | – | 26900 nM | – | – | – | – | – | – | – | – | – | – | – | – |
| COc1cccc(OC)c1OCCNCC1COCC(c2ccccc2)(c2ccccc2)O1 (racemic) | 8.28 | 32000 nM | 324 nM | 339 nM | 1.41 nM | 14000 nM | 45000 nM | 66.1 nM | – | – | – | – | – | – | – | – | – | – |
